The source of these data is ChEMBL document CHEMBL5120794, “Development of 5-hydroxyl-1-azabenzanthrone derivatives as dual binding site and selective acetylcholinesterase inhibitors” (Eur J Med Chem, 2022).

The structures appear in SMILES notation. Active and inactive are the calls of the source. The calls are words filed in the database; no cut-off is given here.

The target of one data set is Acetylcholinesterase (Electrophorus electricus, UniProt O42275). Briefly: Inhibition of Electrophorus electricus AchE using […] as substrate incubated for 10 mins followed by substrate addition measured at 0 to 180 secs by Ellman's method.
Chain of Acetylcholinesterase (O42275 whole entry): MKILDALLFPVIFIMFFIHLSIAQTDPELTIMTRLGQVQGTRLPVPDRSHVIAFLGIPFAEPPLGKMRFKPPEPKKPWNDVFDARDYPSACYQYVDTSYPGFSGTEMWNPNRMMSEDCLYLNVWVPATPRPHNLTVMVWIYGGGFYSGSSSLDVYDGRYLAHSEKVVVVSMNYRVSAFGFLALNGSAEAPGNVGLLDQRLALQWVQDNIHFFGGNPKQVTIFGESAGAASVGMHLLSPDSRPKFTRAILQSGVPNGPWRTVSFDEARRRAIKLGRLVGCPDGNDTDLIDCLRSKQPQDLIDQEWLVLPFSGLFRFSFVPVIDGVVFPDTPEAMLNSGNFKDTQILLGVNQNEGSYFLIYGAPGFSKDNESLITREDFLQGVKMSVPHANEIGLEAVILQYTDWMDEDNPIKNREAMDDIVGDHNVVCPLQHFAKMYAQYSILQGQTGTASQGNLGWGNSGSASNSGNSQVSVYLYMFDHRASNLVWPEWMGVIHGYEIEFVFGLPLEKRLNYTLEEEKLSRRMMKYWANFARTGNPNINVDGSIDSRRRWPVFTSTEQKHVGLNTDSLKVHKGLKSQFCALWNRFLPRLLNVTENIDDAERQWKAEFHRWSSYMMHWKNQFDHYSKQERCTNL
In data set [1] the target is Amyloid-beta precursor protein (Homo sapiens) (UniProt P05067). The experiment in a line: Inhibition of amyloid beta (1 to 42) (unknown origin) self-induced aggregation at 25 uM measured after 46 to 48 hrs by Thioflavin binding assay relative to control. Particulars: time 46-48 hrs.
Chain of Amyloid-beta precursor protein (Homo sapiens) (P05067 whole entry): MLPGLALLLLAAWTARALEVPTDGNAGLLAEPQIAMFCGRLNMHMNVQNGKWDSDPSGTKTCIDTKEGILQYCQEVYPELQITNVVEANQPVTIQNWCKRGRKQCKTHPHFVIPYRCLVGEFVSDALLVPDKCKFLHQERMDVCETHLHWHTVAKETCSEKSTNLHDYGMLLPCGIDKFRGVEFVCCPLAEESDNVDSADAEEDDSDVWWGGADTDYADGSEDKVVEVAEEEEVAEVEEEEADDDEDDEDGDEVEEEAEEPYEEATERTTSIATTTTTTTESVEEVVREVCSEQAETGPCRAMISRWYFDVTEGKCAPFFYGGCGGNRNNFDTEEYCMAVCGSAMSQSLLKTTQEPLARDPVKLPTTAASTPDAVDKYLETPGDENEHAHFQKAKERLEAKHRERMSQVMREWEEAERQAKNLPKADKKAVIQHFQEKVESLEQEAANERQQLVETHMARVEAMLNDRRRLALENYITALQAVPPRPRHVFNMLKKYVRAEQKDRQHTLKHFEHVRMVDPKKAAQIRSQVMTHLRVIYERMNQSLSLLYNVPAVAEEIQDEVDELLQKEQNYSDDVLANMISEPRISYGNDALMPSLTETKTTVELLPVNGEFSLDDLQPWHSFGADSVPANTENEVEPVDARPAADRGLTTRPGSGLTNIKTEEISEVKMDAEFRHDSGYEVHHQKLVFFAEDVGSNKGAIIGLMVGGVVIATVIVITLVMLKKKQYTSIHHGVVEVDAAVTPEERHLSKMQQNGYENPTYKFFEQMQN
Data set [2] has as its system PC-12. The experiment in a line: Cytoprotective activity against H2O2-induced oxidative damage in rat PC-12 cells assessed as cell viability at 1 uM preincubated for 4 hrs followed by H2O2 treatment for another 24 hrs by MTT assay. The format is functional, cell-based. Particulars: time 28.0 hrs. On the technique in general: Tetrazolium dyes change colour on reduction, which living cells bring about.

Data set [3] deals with PC-12. The experiment in a line: Induction of apoptosis in rat PC-12 cells assessed as early apoptotic cells at 0.1 uM preincubated for 4 hrs followed by H2O2 treatment for another 24 hrs by Annexin V and PI double staining based flow cytometric analysis (RVB = 4.52 %). The format is functional. Particulars: time 28 hrs. On the technique in general: In flow cytometry, cells or beads pass a laser one at a time.

Data set [4] concerns PC-12. The experiment in a line: Induction of apoptosis in rat PC-12 cells assessed as late apoptotic cells at 0.1 uM preincubated for 4 hrs followed by H2O2 treatment for another 24 hrs by Annexin V and PI double staining based flow cytometric analysis (RVB = 5.46 %). The format is functional. Particulars: time 28 hrs.
Data set [5] deals with PC-12. Briefly: Induction of apoptosis in rat PC-12 cells assessed as late apoptotic cells at 0.3 uM preincubated for 4 hrs followed by H2O2 treatment for another 24 hrs by Annexin V and PI double staining based flow cytometric analysis (RVB = 5.46 %). The class given is functional. Conditions: time 28 hrs.
In data set [6] the test system is PC-12. Briefly: Antioxidant activity in H2O2-induced oxidative stress in rat PC-12 cells assessed as increase in expression of HO-1 level preincubated for 4 hrs followed by H2O2 treatment for another 24 hrs by Western blotting analysis. The class given is functional, cell-based. Particulars: dose 0.5-3 µM, time 28.0 hrs, DDE = dose-dependent effect. (A western blot detects proteins with antibodies after separation by electrophoresis.)

The nature of data set [7]: AUC (0 to infinity) in Sprague-Dawley rat plasma at 2 mg/kg, iv measured at 10 to 1440 mins by LC-MS/MS analysis. Set-up: time lower 10 min, dose 2 mg/kg, time upper 1440 min, route iv. The class given is ADME, organism-based.
The nature of data set [8]: MRT infinity in Sprague-Dawley rat plasma at 2 mg/kg, iv measured at 10 to 1440 mins by LC-MS/MS analysis. The format is ADME, organism-based. Particulars: time 10-1440 min.
Data set [9] can be described thus: Half life in Sprague-Dawley rat plasma at 10 mg/kg, IG measured at 10 to 1440 mins by LC-MS/MS analysis. The class given is ADME, organism-based. Particulars: po, time 10-1440 min.
Data set [10] is described as follows: Half life in Sprague-Dawley rat plasma at 2 mg/kg, iv measured at 10 to 1440 mins by LC-MS/MS analysis. The format is ADME, organism-based. Particulars: time 10-1440 min.
In the next data set the test system is Mus musculus. Briefly: Antialzheimer activity in scopolamine-induced cognitive impairment ICR mouse model assessed as improvement of exploration ability at 2.5 to 10 mg/kg, ip administered for 14 consecutive days followed by scopolmaine-stimulation measured on day 21 by Y maze test. The class given is functional. Particulars: dose 2.5-10 mg/kg, time 21 day.

A short description of data set [11]: Toxicity in sopolamine-induced cognitive impairment ICR mouse model assessed as morphological change in heart at 10 mg/kg, ip administered for 14 consecutive days followed by scopolmaine-stimulation measured on day 21 by H and E staining method. The format is organism-based. Conditions: in vivo, 504 h, time 21 day.
Data set [12] in a line: Toxicity in sopolamine-induced cognitive impairment ICR mouse model assessed as morphological change in liver at 10 mg/kg, ip administered for 14 consecutive days followed by scopolmaine-stimulation measured on day 21 by H and E staining method. The class given is organism-based. Particulars: in vivo, 504 h, time 21 day.

`CC1CCCCN1CCCOc1cc2c3c(nccc3c1)-c1ccccc1C2=O` (centres undefined): the IC50 (usually the concentration needed to halve the response being measured) against Acetylcholinesterase turned out to be 45 nM. Moreover, in data set [1], the inhibition (in general, the change of the read-out against control, counted positive when it falls) was 35.3%. For the same molecule, the result with PC-12 [2] was Active. Moreover, the Activity is 6.76% in the data set on PC-12 [3]; 8.98% with PC-12 [4]; 6.09% in the data set with PC-12 [5]; “Dde” in the data set with PC-12 [6]; 45.98% in the data set on Mus musculus; “Non-Toxic” in data set [11]. Also, the Activity entry in data set [12] is reported as “Non-Toxic”. Also, in data set [7], the area under the curve AUC(0-inf) – broadly, total exposure, with the tail of the curve extrapolated – was found to be 288 ng·h/mL. Besides, in data set [8], the MRT inf (in general, a mean duration of stay, worked out from the concentration-time curve) worked out at 2.79 h. For the same molecule, the half-life – broadly, how long it takes for the measured level to halve – in data set [9] was 6.47 h; in data set [10], 3.73 h.
